Experimental data as given in paper PMC5451006, “Inhibition of insect olfactory behavior by an airborne antagonist of the insect odorant receptor co-receptor subunit” (PLoS ONE, 2017).

Experiments:
Format in all cases: cell-based
Agam\Orco+Agam\Or39 = target: T1, Agam\Orco+Agam\Or39 (Anopheles gambiae, UniProt Q7QCC7); test: two-electrode voltage clamp, Xenopus oocytes, single concentration; details: antagonist vs 10 μM 6-methyl-5-hepten-2-one (EC50 concentration); allosteric via Orco; pH 7.4, -70 mV
T1 construct: heteromeric OR co-expressed in Xenopus laevis oocytes; stoichiometry unknown; with Odorant receptor 39
T1 sequence (Q7QCC7 1-478): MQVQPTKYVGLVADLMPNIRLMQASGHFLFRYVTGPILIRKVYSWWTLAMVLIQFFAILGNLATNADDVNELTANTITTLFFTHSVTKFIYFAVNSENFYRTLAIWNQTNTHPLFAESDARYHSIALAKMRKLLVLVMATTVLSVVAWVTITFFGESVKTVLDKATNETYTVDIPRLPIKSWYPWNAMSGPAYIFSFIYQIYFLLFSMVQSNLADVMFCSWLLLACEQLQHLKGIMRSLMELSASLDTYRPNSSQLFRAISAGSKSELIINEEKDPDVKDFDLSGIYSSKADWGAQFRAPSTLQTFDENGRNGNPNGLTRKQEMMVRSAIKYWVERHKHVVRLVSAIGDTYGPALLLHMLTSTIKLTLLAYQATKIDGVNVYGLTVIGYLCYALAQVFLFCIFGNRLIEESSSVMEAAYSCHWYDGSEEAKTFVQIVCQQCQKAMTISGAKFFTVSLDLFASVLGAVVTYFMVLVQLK

Agam\Orco+Agam\Or65 = target: T2, Agam\Orco+Agam\Or65 (Anopheles gambiae, UniProt Q7QCC7); test: as above; details: antagonist vs 100 nM eugenol (EC50 concentration); allosteric via Orco; pH 7.4, -70 mV
T2 construct: heteromeric OR co-expressed in Xenopus laevis oocytes; stoichiometry unknown; with Odorant receptor 65
T2 sequence (Q7QCC7 1-478): T1 sequence (Q7QCC7 1-478)

Agam\Orco+Agam\Or31 = target: T3, Agam\Orco+Agam\Or31 (Anopheles gambiae, UniProt Q7QCC7); test: as above; details: antagonist vs 70 μM geranyl acetate (EC50 concentration); allosteric via Orco; pH 7.4, -70 mV
T3 construct: heteromeric OR co-expressed in Xenopus laevis oocytes; stoichiometry unknown; with Odorant receptor 31
T3 sequence (Q7QCC7 1-478): T1 sequence (Q7QCC7 1-478)

Dmel\Orco+Dmel\Or35a = target: T4, Dmel\Orco+Dmel\Or35a (Drosophila melanogaster, UniProt Q9VNB5); test: two-electrode voltage clamp, Xenopus oocytes, concentration-inhibition
T4 construct: heteromeric OR, cRNAs co-expressed in Xenopus laevis oocytes; stoichiometry unknown; with Odorant receptor 35a
T4 sequence (Q9VNB5 1-486): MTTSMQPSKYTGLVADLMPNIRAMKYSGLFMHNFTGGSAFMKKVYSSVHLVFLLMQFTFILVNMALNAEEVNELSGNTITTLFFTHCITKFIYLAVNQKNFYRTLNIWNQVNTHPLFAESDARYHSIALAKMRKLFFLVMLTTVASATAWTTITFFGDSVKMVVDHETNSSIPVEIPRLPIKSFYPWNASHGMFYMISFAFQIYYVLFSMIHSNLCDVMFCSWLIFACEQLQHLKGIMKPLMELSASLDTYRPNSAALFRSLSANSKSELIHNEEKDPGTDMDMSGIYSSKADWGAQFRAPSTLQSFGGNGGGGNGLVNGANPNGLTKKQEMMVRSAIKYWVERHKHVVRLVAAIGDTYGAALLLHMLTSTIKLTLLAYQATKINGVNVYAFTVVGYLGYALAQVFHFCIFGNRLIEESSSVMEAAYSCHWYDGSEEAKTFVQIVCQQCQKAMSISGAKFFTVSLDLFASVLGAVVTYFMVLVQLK
T4 sequence (Q9V3Q2 1-409 partner): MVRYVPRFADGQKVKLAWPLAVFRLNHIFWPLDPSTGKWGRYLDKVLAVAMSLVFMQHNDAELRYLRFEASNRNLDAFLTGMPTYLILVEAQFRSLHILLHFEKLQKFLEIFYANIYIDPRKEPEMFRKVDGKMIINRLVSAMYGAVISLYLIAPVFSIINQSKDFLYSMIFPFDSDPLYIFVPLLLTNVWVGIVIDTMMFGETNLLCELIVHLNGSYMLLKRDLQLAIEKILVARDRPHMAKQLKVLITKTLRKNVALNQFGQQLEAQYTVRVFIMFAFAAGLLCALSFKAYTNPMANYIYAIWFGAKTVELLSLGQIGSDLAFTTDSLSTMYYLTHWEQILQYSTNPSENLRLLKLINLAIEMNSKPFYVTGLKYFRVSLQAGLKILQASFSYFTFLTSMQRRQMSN

Cqui\Orco = target: T5, Cqui\Orco (Culex quinquefasciatus, UniProt Z9TAD8G4U6); test: two-electrode voltage clamp, Xenopus oocytes, single concentration; details: antagonist vs 30 μM OLC12; homomeric Orco; pH 7.4, -70 mV
T5 construct: homomeric Orco channel, expressed alone in Xenopus laevis oocytes
T5 sequence (Z9TAD8G4U6 1-480): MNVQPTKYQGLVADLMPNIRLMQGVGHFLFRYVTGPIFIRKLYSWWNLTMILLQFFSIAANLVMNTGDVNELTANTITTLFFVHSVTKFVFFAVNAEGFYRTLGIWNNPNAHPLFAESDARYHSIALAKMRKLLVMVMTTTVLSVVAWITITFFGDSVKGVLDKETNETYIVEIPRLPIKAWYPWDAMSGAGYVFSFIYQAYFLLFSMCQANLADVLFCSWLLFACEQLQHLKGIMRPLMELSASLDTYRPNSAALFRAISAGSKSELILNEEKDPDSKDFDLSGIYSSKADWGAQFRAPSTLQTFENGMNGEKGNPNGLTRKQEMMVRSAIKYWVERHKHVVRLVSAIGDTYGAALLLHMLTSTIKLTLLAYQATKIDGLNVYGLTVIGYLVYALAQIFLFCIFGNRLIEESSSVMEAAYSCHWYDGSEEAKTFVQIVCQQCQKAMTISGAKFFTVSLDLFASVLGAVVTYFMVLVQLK
Text: two-electrode voltage clamp, Xenopus oocytes, single concentration on Cqui\Orco | OX1w inhibition of homomeric Orco channels. Oocytes expressing Dmel\Orco, Cqui\Orco or Agam\Orco

Agam\Orco = target: T6, Agam\Orco (Anopheles gambiae, UniProt Q7QCC7); test: as above; details: antagonist vs 30 μM OLC12; homomeric Orco; pH 7.4, -70 mV
T6 construct: homomeric Orco channel, expressed alone in Xenopus laevis oocytes
T6 sequence (Q7QCC7 1-478): T1 sequence (Q7QCC7 1-478)
Text: two-electrode voltage clamp, Xenopus oocytes, single concentration on Agam\Orco | OX1w inhibition of homomeric Orco channels. Oocytes expressing Dmel\Orco, Cqui\Orco or Agam\Orco

Dmel\Orco = target: T7, Dmel\Orco (Drosophila melanogaster, UniProt Q9VNB5); test: as above; details: antagonist vs 30 μM OLC12; homomeric Orco; pH 7.4, -70 mV
T7 construct: homomeric Orco channel, expressed alone in Xenopus laevis oocytes
T7 sequence (Q9VNB5 1-486): T4 sequence (Q9VNB5 1-486)
Text: two-electrode voltage clamp, Xenopus oocytes, single concentration on Dmel\Orco | OX1w inhibition of homomeric Orco channels. Oocytes expressing Dmel\Orco, Cqui\Orco or Agam\Orco

Agam\Orco+Agam\Or28 = target: T8, Agam\Orco+Agam\Or28 (Anopheles gambiae, UniProt Q7QCC7); test: as above; details: antagonist vs 40 μM acetophenone (EC50 concentration); allosteric via Orco; pH 7.4, -70 mV
T8 construct: heteromeric OR co-expressed in Xenopus laevis oocytes; stoichiometry unknown; with Odorant receptor 28
T8 sequence (Q7QCC7 1-478): T1 sequence (Q7QCC7 1-478)

Agam\Orco+Agam\Or15 = target: T9, Agam\Orco+Agam\Or15 (Anopheles gambiae, UniProt Q7QCC7); test: as above; details: antagonist vs 18 μM acetophenone (EC50 concentration); allosteric via Orco; pH 7.4, -70 mV
T9 construct: heteromeric OR co-expressed in Xenopus laevis oocytes; stoichiometry unknown; with Odorant receptor 15
T9 sequence (Q7QCC7 1-478): T1 sequence (Q7QCC7 1-478)

Agam\Orco+Agam\Or27 = target: T10, Agam\Orco+Agam\Or27 (Anopheles gambiae, UniProt Q7QCC7); test: as above; details: antagonist vs 3 μM L-fenchone (EC50 concentration); allosteric via Orco; pH 7.4, -70 mV
T10 construct: heteromeric OR co-expressed in Xenopus laevis oocytes; stoichiometry unknown; with Odorant receptor 27
T10 sequence (Q7QCC7 1-478): T1 sequence (Q7QCC7 1-478)

Cqui\Orco+Cqui\Or21 = target: T11, Cqui\Orco+Cqui\Or21 (Culex quinquefasciatus, UniProt Z9TAD8G4U6); test: two-electrode voltage clamp, Xenopus oocytes, concentration-inhibition; details: antagonist vs 3 μM OLC12 (Orco agonist), -70 mV, pH 7.4, 90 sec pre-application
T11 construct: heteromeric OR, cRNAs from pGEMHE co-expressed in Xenopus laevis oocytes; stoichiometry unknown; with Odorant receptor 21
T11 sequence (Z9TAD8G4U6 1-480): T5 sequence (Z9TAD8G4U6 1-480)

% response remaining at 100 μM (normalized to sham) (Agam\Orco+Agam\Or65) [%] | IC50 (Dmel\Orco+Dmel\Or35a) [µM] | % response remaining at 100 μM (normalized to sham) (Agam\Orco+Agam\Or28) [%] | IC50 (Cqui\Orco+Cqui\Or21) [µM] | SMILES | % response remaining at 100 μM (normalized to sham) (Agam\Orco+Agam\Or39) | % response remaining at 100 μM (normalized to sham) (Agam\Orco+Agam\Or31) | % response remaining at 100 μM (Cqui\Orco) | % response remaining at 100 μM (Agam\Orco) | % response remaining at 100 μM (Dmel\Orco) | % response remaining at 100 μM (normalized to sham) (Agam\Orco+Agam\Or15) | % response remaining at 100 μM (normalized to sham) (Agam\Orco+Agam\Or27)
78 ± 5 | 57 ± 5 | 8 ± 1 | 4 ± 1 | O=C(Nc1ccc(F)cc1)c1sccc1Cl [OX1w, 3-chloro-N-(4-fluorophenyl)-2-thiophenecarboxamide] | OX1w was able to inhibit odorant activation of each of the tested ORs | OX1w was able to inhibit odorant activation of each of the tested ORs | OX1w inhibition of homomeric Orco channels. Oocytes expressing Dmel\Orco, Cqui\Orco or Agam\Orco | OX1w inhibition of homomeric Orco channels. Oocytes expressing Dmel\Orco, Cqui\Orco or Agam\Orco | OX1w inhibition of homomeric Orco channels. Oocytes expressing Dmel\Orco, Cqui\Orco or Agam\Orco | OX1w was able to inhibit odorant activation of each of the tested ORs | OX1w was able to inhibit odorant activation of each of the tested ORs
– | 32 ± 4 | – | 20 ± 3 | O=C(Nc1cc(F)cc(F)c1)c1cccs1 [OX1v, N-(3,5-difluorophenyl)-2-thiophenecarboxamide] | – | – | – | – | – | – | –
– | 32 ± 6 | – | 15 ± 1 | O=C(Nc1ccc(SC(F)F)cc1)c1cccs1 [OX1x, N-(4-((difluoromethyl)thio)phenyl)-2-thiophenecarboxamide] | – | – | – | – | – | – | –
